Reference: ChEMBL document CHEMBL5257055, “Contemporary Progress and Opportunities in RNA-Targeted Drug Discovery” (ACS Med Chem Lett, 2023)
Numbered stars: 1 amine (or outer) side, 2 acyl side, 3 side chain; on linkers, the order of the positions; unused ones are H or OH. Bridge positions count the residues as written; N and C are the ends. Peptide text beside a SMILES is read from it. X1 = CCC(C)CCCCCCCCC(CC(=O)[*:1])O[*:2]

Key:
[1] = Binding affinity to CAG repeat RNA (unknown origin) assessed as dissociation constant
[2] = Binding affinity to pre-miR-544 (unknown origin) assessed as dissociation constant
[3] = Binding affinity to CUG repeat RNA (unknown origin) assessed as dissociation constant
[4] = Binding affinity to HCV IRES; design: species or system Hepacivirus hominis
[5] = Binding affinity to pre-miR-210 (unknown origin) assessed as dissociation constant
[6] = Binding affinity to pre-miR-96 (unknown origin) assessed as dissociation constant
[7] = Binding affinity to CGG repeat RNA (unknown origin) assessed as dissociation constant
[8] = Binding affinity to SARS-CoV-2 Attenuator hairpin RNA by MST assay; design: species or system Severe acute respiratory syndrome coronavirus 2
[9] = Binding affinity to pre-miR-200c (unknown origin) assessed as dissociation constant
[10] = Binding affinity to HCV RNA; design: species or system Hepacivirus hominis
[11] = system: FMN riboswitch; experiment: Binding affinity to Escherichia coli FMN riboswitch RNA assessed as dissociation constant; type: nucleic-acid assay
[12] = Binding affinity to pre-miR-27a (unknown origin) assessed as dissociation constant
[13] = Binding affinity to XIST RNA (unknown origin)
[14] = Binding affinity to preQ1
[15] = Binding affinity to mouse MALAT1 assessed as dissociation constant
[16] = Binding affinity to pre-miR-21 (unknown origin) assessed as dissociation constant
[17] = target: T1, Sulfhydryl oxidase 1 (Homo sapiens, UniProt O00391); experiment: Binding affinity to QSOX1 (unknown origin) assessed as dissociation constant
T1 sequence (O00391 whole entry): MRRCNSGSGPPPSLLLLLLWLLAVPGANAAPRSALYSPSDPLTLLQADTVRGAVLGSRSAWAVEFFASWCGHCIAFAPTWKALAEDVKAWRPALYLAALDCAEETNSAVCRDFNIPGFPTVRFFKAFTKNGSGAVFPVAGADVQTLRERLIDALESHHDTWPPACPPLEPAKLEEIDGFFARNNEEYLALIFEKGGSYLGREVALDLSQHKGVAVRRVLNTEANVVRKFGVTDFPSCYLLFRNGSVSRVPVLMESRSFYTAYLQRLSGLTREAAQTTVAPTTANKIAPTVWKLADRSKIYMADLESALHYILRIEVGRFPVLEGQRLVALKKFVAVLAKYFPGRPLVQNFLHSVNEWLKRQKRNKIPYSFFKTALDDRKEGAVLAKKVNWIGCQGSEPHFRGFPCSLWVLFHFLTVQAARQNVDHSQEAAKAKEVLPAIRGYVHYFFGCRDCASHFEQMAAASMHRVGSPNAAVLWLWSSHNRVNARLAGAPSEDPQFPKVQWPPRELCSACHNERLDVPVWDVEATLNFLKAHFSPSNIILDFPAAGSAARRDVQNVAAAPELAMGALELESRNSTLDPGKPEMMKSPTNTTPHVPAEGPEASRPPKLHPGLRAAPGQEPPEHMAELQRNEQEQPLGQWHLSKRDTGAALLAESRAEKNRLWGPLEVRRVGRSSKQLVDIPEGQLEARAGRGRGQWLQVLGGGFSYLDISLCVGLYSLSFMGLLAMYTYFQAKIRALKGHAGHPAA

[18] = Binding affinity to r(AUUCA) repeat RNA (unknown origin) assessed as dissociation constant
[19] = Binding affinity to pre-mRNA (unknown origin)
[20] = Binding affinity to HIV-1 RNA assessed as dissociation constant; design: species or system Human immunodeficiency virus 1

`N#Cc1c(N2CCCC2)nc(N)c2c(N)nc(N3CCCC3)cc12` showed a Kd [1] of 1400 nM, a Kd [2] of 1000 nM and a Kd [3] of 125 nM.

With `CN(C)CC1COc2ccc3nc4n(c3c2C1)CC(CN(C)C)CN4` (stereo not drawn) the Kd [4] was 720 nM.

`CN1CCN(c2ccc3nc(-c4ccc5[nH]c(-c6cccc(OCCCC(=O)NCCCN=[N+]=[N-])c6)nc5c4)[nH]c3c2)CC1` showed a Kd [5] of 1700 nM, a Kd [6] of 1500 nM and a Kd [3] of 150 nM. For the same molecule, the Kd [7] was 375 nM.

With `CNc1nc(Nc2cccc(C(=O)O)c2)nc2ccccc12` the Kd [8] was 11 nM.

In the case of `O=C(Nc1ccc(C2=NCCN2)cc1)c1cc(C(=O)Nc2ccc(C3=NCCN3)cc2)cc(C(=O)Nc2ccc(C3=NCCN3)cc2)c1`, the Kd [9] is reported as 1100 nM and the Kd [10] is reported as 849 nM.

`CNc1ncc(CN2CCCC(c3nc(O)cc(-c4cccs4)n3)C2)cn1` (stereo not drawn) gave a Kd [11] of 16 nM.

With `C#CCN(CC(N)=O)C(=O)C[C@@H](Cc1c[nH]c2ccccc12)NC(=O)[C@H]1CC(NC(=O)Cn2c(=O)[nH]c3ccccc3c2=O)CN1` (stereo partly drawn) the Kd [12] was 90 nM.

`c1ccc(COc2cccc(-c3ccc4[nH]nc(-c5nc6ccccc6[nH]5)c4c3)c2)cc1` showed a Kd [13] of 400 nM.

With `NCCOc1ccc2oc3ccccc3c2c1` the Kd [14] was 500 nM.

`O=C(NCCN1CCCC1)c1ccc2oc(C(=O)c3cc(O)c(O)c(O)c3)cc2c1` showed a Kd [4] of 360 nM.

With `COc1ccc(-c2cnc(NCc3cccc(OC)c3)n2C)cc1` the Kd [15] was 2900 nM.

Work on `NC(=O)CNC(=O)[C@H](Cc1ccc(Cl)cc1)NC(=O)c1ccc2nc(-c3ccccc3)[nH]c2c1` yielded a Kd [3] of 6300 nM.

Work on `CN(C)c1nc(N)c(C(=O)NC(=N)N)nc1C#Cc1ccccc1` yielded a Kd [4] of 520 nM.

Work on `C#CCCC1(CCC(=O)Nc2ccc(OC)c(OCc3cn4ccccc4n3)c2)N=N1` yielded a Kd [16] of 256 nM.

In the case of `C#CCCC1(CCC(=O)N(C)[C@@H]2CC[C@H](c3ccc(Cl)c(Cl)c3)c3ccccc32)N=N1`, the Kd [17] is reported as 16 µM.

With `Cc1ccc(C(=O)N2Cc3ccccc3C[C@H]2C(N)=O)cc1NCc1c(F)ccc(O)c1F` the Kd [12] was 94 nM.

With `CCC(C)CCCCCCCCC1CC(=O)N[C@@H](CCC(=O)O)C(=O)N[C@@H](CC(C)C)C(=O)N[C@@H](CC(C)C)C(=O)N[C@@H](C(C)C)C(=O)N[C@@H](CC(=O)O)C(=O)N[C@@H](CC(C)C)C(=O)N[C@@H](CC(C)C)C(=O)O1` (stereo partly drawn) (ELLVDLL; linker N-C via X1) the Kd [16] was 780 nM.

Molecule `N=C(N)c1ccc(-c2ccc(-c3ccc(C(=N)N)cc3)o2)cc1` [FURAMIDINE] has a Kd [18] of 170 nM and a Kd [15] of 560 nM.

For `O=C1c2c(O)ccc(O)c2C(=O)c2c(NCCNCCO)ccc(NCCNCCO)c21` [MITOXANTRONE], the Kd [16] was 33 nM and the Kd [19] was less than 1000 nM.

For `CC(=O)c1c(C)c2cnc(Nc3ccc(N4CCNCC4)cn3)nc2n(C2CCCC2)c1=O` [PALBOCICLIB], the Kd [20] was 104 nM.
